For assay [1], the system named is P. aeruginosa PAO1/pME-VIM-2. Put plainly: Susceptibility testing, VIM-2-producing P. aeruginosa PAO1. It is filed as cell-based. The conditions noted are these: Pseudomonas aeruginosa, PAO1, read-out: MIC of MPM without inhibitor. On the procedure:
(§1) MICs were determined via the microdilution method according to the CLSI guidelines ([38]). In brief, 5 × 10^4 bacterial cells were inoculated in 100 μl of cation-adjusted Mueller-Hinton broth (Becton, Dickinson and Company, Franklin Lakes, NJ) containing the β-lactams and appropriately diluted inhibitors. The final concentration of DMSO was maintained at 2% in the assays. The tested plates were then incubated at 35°C for 16 to 20 h. The MIC value was determined as the lowest concentration of tested β-lactams where no bacterial growth was visibly observed. The optical density at 600 nm (OD600) value was measured using a plate reader for drawing the heat maps. The FIC index value was calculated using the following equation: FIC index=MIC of β-lactam with inhibitor/MIC of β-lactam alone+MIC of inhibitor with β-lactam/MIC of inhibitor alone

Assay [2] relates to IMP-1-producing E. coli NUBL-24. In words: Mouse infection model, E. coli NUBL-24, survival. As to conditions: SFC 100 mg/kg or MPM 0.2 mg/kg i.p. at 1 and 3 h after infection; within 48 h. It is filed as in vivo, mice. On the procedure:
All experiments were approved by the Nagoya University Animal Ethics Committee, and all experiments were performed in a manner that minimized animal suffering. Male CD1 mice (4 weeks old; 20 to 25 g body weight) were purchased from Charles River Laboratories Japan (Yokohama, Japan). E. coli NUBL-24 (blaIMP-1) and K. pneumoniae MS5674 (blaNDM-1 and blaVIM-1) strains were inoculated on LB agar plates and grown for 18 h at 37°C. Bacteria were then scraped from the plates, and their concentration was adjusted to 5 × 10^6 to 1 × 10^7 CFU in saline solution containing 5% mucin; this solution was then i.p. injected into the mice. At 1 and 3 h after infection, saline solution, MPM, inhibitors, and a combination of MPM and inhibitor were i.p. injected. Mice were monitored for 7 days to formulate survival curves, after which they were euthanized by CO2 asphyxiation.

The next assay deals with E. coli DH5α/pBC-NDM-1. In words: Susceptibility and checkerboard testing, NDM-1-producing E. coli. It is filed as cell-based, Escherichia coli. As to conditions: Escherichia coli, read-out: MIC of MPM without inhibitor. On the procedure: as §1
(§2) Unless noted otherwise, the FIC index was defined as the lowest value among all obtained values. The synergistic effect was defined as the effect observed when the FIC index value was ≤0.5.

Assay [3] has as its system P. aeruginosa PAO1/pME6032. Put plainly: Susceptibility testing, P. aeruginosa PAO1 with empty vector. It is filed as cell-based. As to conditions: Pseudomonas aeruginosa, PAO1, read-out: MIC of MPM without inhibitor. The protocol: as §1
The subject of assay [4] is IMP-1-producing E. coli NUBL-24. In words: Susceptibility and checkerboard testing, E. coli NUBL-24. It is filed as cell-based. The conditions noted are these: Escherichia coli; E. coli NUBL-24 (blaIMP-1), MPM alone. On the procedure: as §1, §2
The initial density of E. coli NUBL-24 (blaIMP-1) (MPM MIC, 8 μg/ml) was adjusted to approximately 5 × 10^6 CFU/ml. Either MPM (1 μg/ml) alone or SFC (10 μg/ml) alone or a combination of the two was added to the bacterial solution, and then incubation was performed at 37°C. LB broth containing only bacteria was used as a control. […]

Assay [5] concerns P. aeruginosa PAO1/pME-IMP-1. Put plainly: Susceptibility testing, IMP-1-producing P. aeruginosa PAO1. It is filed as cell-based. The conditions noted are these: Pseudomonas aeruginosa, PAO1, read-out: MIC of MPM without inhibitor. On the procedure: as §1
Assay [6] relates to P. aeruginosa PAO1/pME-NDM-1. Put plainly: Susceptibility testing, NDM-1-producing P. aeruginosa PAO1. It is filed as cell-based. As to conditions: Pseudomonas aeruginosa, PAO1, read-out: MIC of MPM without inhibitor. The protocol:
as §1

For the next assay, the system named is E. coli DH5α/pBC-TMB-2. Put plainly: Susceptibility testing, TMB-2-producing E. coli. The conditions noted are these: Escherichia coli, read-out: MIC of MPM without inhibitor. It is filed as cell-based. The protocol:
as §1

Assay [7] relates to IMP-type MBL-producing Enterobacteriaceae. In words: Susceptibility testing, 19 IMP-type MBL-producing Enterobacteriaceae isolates. It is filed as cell-based. The conditions noted are these: read-out: MIC of MPM alone. The protocol: as §1
Assay [8] has as its system E. coli BL21(DE3)/pET-SIM-1. Put plainly: Susceptibility testing, SIM-1-producing E. coli. It is filed as cell-based. The conditions noted are these: Escherichia coli, read-out: MIC of MPM without inhibitor. On the procedure: as §1
The subject of the next assay is E. coli DH5α/pBC-IMP-1. Put plainly: Susceptibility and checkerboard testing, IMP-1-producing E. coli. It is filed as cell-based, Escherichia coli. On the procedure:
as §1, §2

The structures appear in SMILES notation. Where only a bound is given, the exact number is not on record here.

Consider `C[C@@H](O)[C@H]1C(=O)N2C(C(=O)O)=C(S[C@@H]3CN[C@H](C(=O)N(C)C)C3)[C@H](C)[C@H]12` [MPM, meropenem, reference compound], for which the MIC in assay [1] amounted to 32 µg/mL; in the assay on E. coli DH5α/pBC-NDM-1 it was 64 µg/mL; in [3] it was 0.5 µg/mL; in [4], 8 µg/mL; in assay [5] it was 128 µg/mL; in assay [6], 8 µg/mL. Besides, the MIC in the assay on E. coli DH5α/pBC-TMB-2 is 16 µg/mL; in assay [7], not below 2 µg/mL; in [8] it was 16 µg/mL; with E. coli DH5α/pBC-IMP-1 (Escherichia coli, read-out: MIC of MPM without inhibitor), 1 µg/mL. In addition, the “Rescue of infected mice by monotherapy” value in assay [2] is given as “failed to rescue mice”. Moreover, in the assay on E. coli DH5α/pBC-IMP-1 (E. coli DH5α/pBC-IMP-1), the “MIC of MPM without inhibitor” value was 1 µg/mL.

For the origin of these results see PMC7078479, “Sulfamoyl Heteroarylcarboxylic Acids as Promising Metallo-β-Lactamase Inhibitors for Controlling Bacterial Carbapenem Resistance” (mBio, 2020).
